Assay results as given in patent publication US20230321123A1, “INHIBITORS OF PSEUDOMONAS AERUGINOSA VIRULENCE FACTOR LasB” (Helmholtz-Zentrum Für Infektionsforschung GmbH, priority 2020, published 2023).
Read-outs that look alike come from different tables or passages of the source.

What was measured:
MMP-3 = MMP-3 (Homo sapiens, UniProt P08254); test: Selectivity against human off-targets: MMP-3; format: biochemical; conditions: at 100 μM; read-out: Inhibition [%] MMP-3
From the text: (§1) The inhibition of zinc-containing human enzymes is described frequently for LasB inhibitors and poses a serious difficulty in the development of selective compounds. Particularly, the inhibition of matrix metalloproteases (MMPs) should be avoided. To further investigate this issue, three derivatives (the compounds of examples 1, 5 and 8) have been tested for their selectivity against several human off-targets, including six MMPs, ADAM17 (TACE), HDAC-3 and HDAC-8 (Table 4). The selectivity of the compounds is particularly high for MMPs and HDACs, whereas the inhibition of ADAM17 was considerably stronger.

Cytotoxicity A549 = format: cell-based; conditions: human
Protocol: (§2) The compounds of examples 1 and 5 were not toxic against the cell lines HepG2, HEK293 and A549 (Table 5). Additionally, the inhibitory effect against P. aeruginosa PA14 was evaluated to exclude an antibacterial effect of the compounds of the present invention. This is important as it was the aim to target virulence and not viability of the bacteria. […]

Cytotoxicity HEK293 = format: cell-based; conditions: human
Protocol: as §2

MMP-1 = biological target: T1, MMP-1 (Homo sapiens, UniProt P03956); test: Selectivity against human off-targets: MMP-1; format: biochemical; conditions: at 100 μM; read-out: Inhibition [%] MMP-1
T1 sequence (P03956 100-469): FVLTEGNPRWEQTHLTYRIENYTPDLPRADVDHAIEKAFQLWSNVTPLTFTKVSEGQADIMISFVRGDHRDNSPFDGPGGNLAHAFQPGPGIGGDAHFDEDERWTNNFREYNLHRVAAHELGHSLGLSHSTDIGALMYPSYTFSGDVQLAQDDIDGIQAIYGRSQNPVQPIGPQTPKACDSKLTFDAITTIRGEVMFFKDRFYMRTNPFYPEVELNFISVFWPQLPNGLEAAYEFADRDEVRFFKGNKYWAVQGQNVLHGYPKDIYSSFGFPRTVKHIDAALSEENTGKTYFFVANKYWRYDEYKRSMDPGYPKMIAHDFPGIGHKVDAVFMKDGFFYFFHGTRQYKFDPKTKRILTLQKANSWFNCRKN
From the text: as §1

MMP-2 = biological target: T2, MMP-2 (Homo sapiens, UniProt P08253); test: Selectivity against human off-targets: MMP-2; format: biochemical; conditions: at 100 μM; read-out: Inhibition [%] MMP-2
T2 sequence (P08253 110-660): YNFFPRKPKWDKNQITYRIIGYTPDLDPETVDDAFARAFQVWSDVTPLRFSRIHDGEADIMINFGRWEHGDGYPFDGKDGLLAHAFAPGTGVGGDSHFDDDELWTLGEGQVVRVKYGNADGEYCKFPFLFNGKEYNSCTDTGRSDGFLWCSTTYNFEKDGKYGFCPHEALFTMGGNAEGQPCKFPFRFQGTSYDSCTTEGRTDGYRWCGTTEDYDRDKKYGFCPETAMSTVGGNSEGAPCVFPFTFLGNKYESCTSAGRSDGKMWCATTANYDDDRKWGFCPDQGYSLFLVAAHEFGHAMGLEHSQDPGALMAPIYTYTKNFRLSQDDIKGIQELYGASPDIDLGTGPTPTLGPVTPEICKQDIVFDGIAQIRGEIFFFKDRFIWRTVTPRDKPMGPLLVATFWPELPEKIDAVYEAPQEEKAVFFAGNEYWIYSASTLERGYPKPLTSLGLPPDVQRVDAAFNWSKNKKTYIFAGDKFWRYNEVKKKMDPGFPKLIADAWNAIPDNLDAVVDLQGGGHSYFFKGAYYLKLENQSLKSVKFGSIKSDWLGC
From the text: as §1

ADAM17 (TACE) = ADAM17 (TACE) (Homo sapiens, UniProt P78536); test: Selectivity against human off-targets: ADAM17 (TACE); format: biochemical; conditions: for IC50: read-out: IC50 ADAM17 (TACE)
Cytotoxicity HepG2 = format: cell-based; conditions: human
Protocol: as §2

P. aeruginosa PA14 = test: PA14 inhibition (MIC, antibacterial effect); format: cell-based; conditions: Pseudomonas aeruginosa, PA14; read-out: MIC PA14
Protocol: as §2

LasB = LasB (Pseudomonas aeruginosa, UniProt Q02RJ6); test: biochemical; design: species or system P. aeruginosa
MMP-8 = MMP-8 (Homo sapiens, UniProt P22894); test: Selectivity against human off-targets: MMP-8; format: biochemical; conditions: at 100 μM; read-out: Inhibition [%] MMP-8
From the text: as §1

Sequence of ADAM17 (TACE) (P78536 215-824): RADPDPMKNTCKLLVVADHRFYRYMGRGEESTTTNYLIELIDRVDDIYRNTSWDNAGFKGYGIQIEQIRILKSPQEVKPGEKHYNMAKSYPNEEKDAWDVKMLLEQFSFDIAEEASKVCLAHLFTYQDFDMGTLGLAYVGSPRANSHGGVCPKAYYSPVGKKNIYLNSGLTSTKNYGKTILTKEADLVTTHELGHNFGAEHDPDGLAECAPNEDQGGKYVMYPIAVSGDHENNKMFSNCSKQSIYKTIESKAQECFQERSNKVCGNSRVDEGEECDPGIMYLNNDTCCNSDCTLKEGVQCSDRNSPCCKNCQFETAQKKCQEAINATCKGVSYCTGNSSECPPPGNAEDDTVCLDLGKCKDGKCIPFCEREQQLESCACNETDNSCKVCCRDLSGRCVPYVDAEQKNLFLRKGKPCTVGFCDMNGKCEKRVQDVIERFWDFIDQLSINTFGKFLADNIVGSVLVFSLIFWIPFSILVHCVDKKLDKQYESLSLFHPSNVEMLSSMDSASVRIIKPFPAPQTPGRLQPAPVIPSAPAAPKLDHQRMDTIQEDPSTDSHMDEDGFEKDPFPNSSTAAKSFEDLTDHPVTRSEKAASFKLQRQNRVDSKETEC
Sequence of MMP-3 (P08254 100-477): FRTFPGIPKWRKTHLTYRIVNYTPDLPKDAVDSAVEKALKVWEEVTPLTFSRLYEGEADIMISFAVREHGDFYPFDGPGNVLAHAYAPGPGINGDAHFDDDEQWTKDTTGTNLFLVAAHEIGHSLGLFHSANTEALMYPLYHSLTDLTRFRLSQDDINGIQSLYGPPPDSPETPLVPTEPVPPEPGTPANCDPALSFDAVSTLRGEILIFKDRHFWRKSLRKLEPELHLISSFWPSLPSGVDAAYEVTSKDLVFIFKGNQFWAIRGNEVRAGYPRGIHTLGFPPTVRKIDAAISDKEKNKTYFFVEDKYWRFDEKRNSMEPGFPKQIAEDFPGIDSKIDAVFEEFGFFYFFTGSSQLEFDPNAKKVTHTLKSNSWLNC
Sequence of LasB (Q02RJ6 198-498): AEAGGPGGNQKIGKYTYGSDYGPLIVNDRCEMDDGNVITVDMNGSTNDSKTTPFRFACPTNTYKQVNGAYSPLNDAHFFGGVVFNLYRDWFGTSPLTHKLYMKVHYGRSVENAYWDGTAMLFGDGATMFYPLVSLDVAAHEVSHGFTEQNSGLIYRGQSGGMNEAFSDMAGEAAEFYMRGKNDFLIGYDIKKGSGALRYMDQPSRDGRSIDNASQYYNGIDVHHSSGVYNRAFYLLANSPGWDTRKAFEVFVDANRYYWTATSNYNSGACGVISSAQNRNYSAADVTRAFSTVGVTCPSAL
Sequence of MMP-8 (P22894 101-467): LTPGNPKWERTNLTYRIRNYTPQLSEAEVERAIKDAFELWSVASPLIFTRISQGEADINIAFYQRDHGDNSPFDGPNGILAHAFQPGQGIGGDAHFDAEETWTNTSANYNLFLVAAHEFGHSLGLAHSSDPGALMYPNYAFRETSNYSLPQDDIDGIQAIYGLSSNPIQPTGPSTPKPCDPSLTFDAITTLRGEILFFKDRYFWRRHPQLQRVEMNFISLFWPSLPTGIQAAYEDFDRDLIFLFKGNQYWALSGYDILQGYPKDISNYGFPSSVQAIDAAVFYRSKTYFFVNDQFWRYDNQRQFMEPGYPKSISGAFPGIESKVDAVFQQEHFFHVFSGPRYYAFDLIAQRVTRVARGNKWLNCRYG

| SMILES | inhibition at 100 µM (MMP-3) [%] | inhibition at 100 µM (MMP-1) [%] | inhibition at 100 µM (MMP-2) [%] | MIC (P. aeruginosa PA14) [µM] | IC50 (LasB; IC50 against LasB) [µM] | other results |
| --- | --- | --- | --- | --- | --- | --- |
| CC(C)CC(C(=O)N[C@H](C(=O)Nc1ccc(Cl)c(Cl)c1)C(C)C)P(=O)(O)O (mixture of isomers) [Example 152, (1-(((S)-1-((3,4-Dichlorophenyl)amino)-3-methyl-1-oxobutan-2-yl)amino)-4-methyl-1-oxopentan-2-yl)phosphonic acid] | < 10 | 13 ± 1 | 7 ± 9 | > 100 | 0.0051 ± 0.0002 | IC50 (Cytotoxicity A549; A549): > 100 µM; IC50 (Cytotoxicity HEK293; HEK293): > 100 µM; IC50 (ADAM17 (TACE)): > 100 µM; IC50 (Cytotoxicity HepG2; HepG2): > 100 µM |
| CC(C)CC(C(=O)N[C@H](c1nc2cc(Oc3ccccc3)ccc2[nH]1)C(C)C)P(=O)(O)O (mixture of isomers) [Example 172, (4-Methyl-1-(((S)-2-methyl-1-(5-phenoxy-1H-benzo[d]imidazol-2-yl)propyl)amino)-1-oxopentan-2-yl)phosphonic acid] | 18 ± 5 | 18 ± 4 | 12 ± 2 | > 100 |  | IC50 (Cytotoxicity A549; A549): > 100 µM; IC50 (Cytotoxicity HEK293; HEK293): > 100 µM; inhibition at 100 µM (ADAM17 (TACE); at 100 μM): < 10%; IC50 (Cytotoxicity HepG2; HepG2): > 100 µM; IC50 (LasB; IC50 against LasB (Table 16), heteropentacycles and benzannulated heteropentacycles): 12 ± 1 µM |
| O=C(Nc1ccc(O)cc1)C(S)Cc1ccccc1 (centres unmarked) [Example 5] |  |  |  |  | 0.59 ± 0.04 | IC50 (Cytotoxicity A549; A549): > 100 µM; IC50 (Cytotoxicity HEK293; HEK293): > 100 µM; IC50 (ADAM17 (TACE)): 2.3 ± 1.4 µM; inhibition at 100 µM (MMP-8): 19 ± 4%; IC50 (Cytotoxicity HepG2; HepG2): > 100 µM |
| Cc1ccc(NC(=O)C(S)Cc2ccccc2)cc1 (centres unmarked) [Example 8] |  |  |  |  |  | IC50 (ADAM17 (TACE)): 4.8 ± 1.2 µM; IC50 (LasB; read-out: IC50 against LasB): 0.48 ± 0.04 µM |
| CC(C)CC(C(=O)Nc1ccc(-c2ccc(Cl)cc2)nc1)P(=O)(O)O (centres unmarked) [Example 92] | < 10 | < 10 | 18 | > 100 |  | IC50 (Cytotoxicity A549; A549 cells): > 100 µM; IC50 (Cytotoxicity HEK293; HEK293 cells): > 100 µM; IC50 (Cytotoxicity HepG2; HepG2 cells): > 100 µM |
| CC(C)CC(C(=O)Nc1ccc(NS(=O)(=O)c2ccc(Cl)c(Cl)c2)cc1)P(=O)(O)O (centres unmarked) [Example 108, (1-((4-((3,4-Dichlorophenyl)sulfonamido)phenyl)amino)-4-methyl-1-oxopentan-2-yl)phosphonic acid] | < 10 | 12 ± 1 | < 10 | > 100 |  | IC50 (Cytotoxicity A549; A549 cells): > 100 µM; IC50 (Cytotoxicity HEK293; HEK293 cells): > 100 µM; IC50 (Cytotoxicity HepG2; HepG2 cells): > 100 µM |
| CC(C)CC(C(=O)N[C@H](C(=O)Nc1ccc(Cl)c(Cl)c1)C1CCCCC1)P(=O)(O)O (some centres unmarked) [Example 156] |  |  |  |  | 0.012 |  |
| CC(C)CC(C(=O)N[C@@H](Cc1ccccc1)C(=O)Nc1ccc(Cl)c(Cl)c1)P(=O)(O)O (some centres unmarked) [Example 157] |  |  |  |  | 0.427 ± 0.048 |  |
| CC(C)CC(C(=O)N[C@@H](CC1CCCCC1)C(=O)Nc1ccc(Cl)c(Cl)c1)P(=O)(O)O (some centres unmarked) [Example 158] |  |  |  |  | 0.242 ± 0.021 |  |
| CC(C)C[C@@H](C(=O)N[C@@H](Cc1cccnc1)C(=O)Nc1ccc(Cl)c(Cl)c1)P(=O)(O)O [Example 159] |  |  |  |  | 1.5 ± 0.06 |  |
| CC(C)C[C@H](C(=O)N[C@@H](Cc1cccnc1)C(=O)Nc1ccc(Cl)c(Cl)c1)P(=O)(O)O [Example 160] |  |  |  |  | 0.573 ± 0.016 |  |
| CC(C)C[C@@H](C(=O)N[C@@H](Cc1ccccn1)C(=O)Nc1ccc(Cl)c(Cl)c1)P(=O)(O)O [Example 161] |  |  |  |  | 1.36 ± 0.05 |  |
| CC(C)C[C@H](C(=O)N[C@@H](Cc1ccccn1)C(=O)Nc1ccc(Cl)c(Cl)c1)P(=O)(O)O [Example 162] |  |  |  |  | 0.416 ± 0.023 |  |
